{"source": "patent US20230058279A1", "about": "“HERBICIDE COMPOSITIONS WITH AUXIN HERBICIDE MONOETHANOLAMINE SALTS WITH IMPROVED PROPERTIES” (MONSANTO TECHNOLOGY LLC, priority 2020, published 2023)", "test": "Partition coefficient of compound (A) in solvents", "type": "physicochemical", "conditions": "HPLC", "experimental": "Experimental procedure for the respective solvent: (1) A solution of 10 g of compound (A) is prepared in 90 g of the respective solvent. (2) An aliquot of 10 g of the solution obtained in step (1) is added to 90 g of water in a glass bottle, which is shaken on a mechanical shaker for 4 hours at ambient temperature (approximately 25° C.). (3) The contents of the glass bottle are permitted to phase separate for 4 days at ambient temperature (approximately 25° C.). (4) Subsamples of the resulting oil and water phases are taken and analyzed by HPLC to determine the concentrations of compound (A) in oil (Co) and water phases (Cw) respectively. The subsamples are typically centrifuged before HPLC analysis to remove traces of organic solvent from the water phase.\nA Partition Coefficient, analogous to the Octanol-Water Partition Coefficient, P, is calculated as Co/Cw. The Partition Coefficient is conveniently expressed as a logarithm […].\nThe ratio of determined concentrations of compound (A) in the solvent phase and the water phase typically is very large. […] In other cases, traces of the organic solvent are found in the water phase, even after centrifugation, so that the apparent concentration of oil-soluble herbicide observed in the water phase is misleadingly high. […]"}
{"molecule": "CCOC(=O)COc1ncccc1Oc1cc(-n2c(=O)cc(C(F)(F)F)n(C)c2=O)c(F)cc1Cl", "note": "[Cmp. A, ethyl [3-[2-chloro-4-fluoro-5-(1-methyl-6-trifluoromethyl-2,4-dioxo-1,2,3,4-tetrahydropyrimidin-3-yl)phenoxy]-2-pyridyloxy]acetate]", "values": [{"measurement": "compound (A) in the water phase", "setting": "acetophenone as organic solvent", "value": "undetectable"}, {"measurement": "compound (A) in the water phase", "setting": "aromatic 200ND as organic solvent", "value": "undetectable"}]}
